# Assay results reported in ChEMBL document CHEMBL2429717 (J Med Chem, 2013).
# Experiments:
# Jurkat = test: Cytotoxicity against human Jurkat cells assessed as growth inhibition; assay type: functional, cell-based
# [1] = Induction of interphase microtubule depolymerization in rat A10 cells; assay type: cell-based
# Tubulin = test: Displacement of [3H]colchicine from tubulin (unknown origin); assay type: protein-complex assay, Homo sapiens
# [2] = Induction of interphase microtubule depolymerization in rat A10 cells after 18 to 24 hrs by DAPI staining-based indirect immunofluorescence assay; assay type: cell-based
# MDA-MB-435 [3] = test: Cytotoxicity against human MDA-MB-435 cells assessed as growth inhibition; assay type: functional, cell-based
# MDA-MB-435 [4] = test: Cytotoxicity against human MDA-MB-435 cells assessed as growth inhibition after 72 hrs by SRB assay; assay type: functional, cell-based; details: MDA-MB-435, 72 h
SMILES,EC50 [1] [µM],pEC50 [1],EC50 [2] [µM],pEC50 [2],IC50 (MDA-MB-435 [3]; read-out: IC50) [µM],IC50 (MDA-MB-435 [3]; read-out: pIC50 (converted)) [µM],further results
O=C1/C(=C/c2cc(Cl)cc(Cl)c2)Cc2cc(O)c(O)cc21,,,,,,,IC50 (Jurkat; read-out: IC50): > 50 µM; IC50 (Jurkat; read-out: pIC50 (converted)): 100 µM
COc1cc2c(c(N)c1OC)C(=O)/C(=C/c1cc(C)c(O)c(C)c1)C2,,,,,,,IC50 (Jurkat; read-out: IC50): 0.001 µM; IC50 (Jurkat; read-out: pIC50 (converted)): 0.001 µM
COc1ccc([C@H]2[C@H](c3cc(OC)c(OC)c(OC)c3)C(C)=NN2C(C)=O)cc1O,4.5,5.35,,,,,
COc1ccc(-c2oc3c(OC)c(OC)c(OC)c(O)c3c(=O)c2OC)cc1O,,,,,,,Kd (Tubulin): 0.13 µM
COC(=O)c1[nH]c(Br)c(-c2ccc(OC)c(OC)c2)c1Br,,,5,5.3,,,
CCCOC(=O)c1[nH]c(Br)c(-c2ccc(OC)c(OC)c2)c1Br,,,3.3,5.48,,,
COc1ccc(-c2c(Br)[nH]c(C(=O)OC(C)C)c2Br)cc1OC,,,3.6,5.44,,,
COc1ccc(-c2c(Br)[nH]c(C(=O)OC(C)(C)C)c2Br)cc1OC,,,25,4.6,,,
CCCCOC(=O)c1[nH]c(Br)c(-c2ccc(OC)c(OC)c2)c1Br,,,33,4.48,,,
CCCCCCOC(=O)c1[nH]c(Br)c(-c2ccc(OC)c(OC)c2)c1Br,,,14,4.85,,,
COc1ccc(-c2c(Br)[nH]c(C(=O)OCc3ccccc3)c2Br)cc1OC,,,100,4,,,
COc1ccc(-c2c(Br)[nH]c(C(=O)OCCCN(C)C)c2Br)cc1OC,,,50,4.3,,,
COc1ccc(-c2c(Br)[nH]c(C(=O)OCCN(C)C)c2Br)cc1OC,,,50,4.3,,,
COc1ccc(-c2c(Br)[nH]c(C(=O)OCCCN(C)C)c2Br)cc1OC.Cl,,,100,4,,,
COc1ccc(-c2c(Br)[nH]c(C(=O)OCCN(C)C)c2Br)cc1OC.Cl,,,100,4,,,
COc1ccc(OC(=O)c2[nH]c(Br)c(-c3ccc(OC)c(OC)c3)c2Br)cc1,,,100,4,,,
Cc1nc2c(c(N(C)c3ccccc3)n1)C[C@@H](C)C2,520,3.28,,,7.1,7.08,
CCOC(=O)c1c(-c2ccc(OC)c(OC)c2)c(-c2ccc(OC)c(OC)c2)cn1CCc1ccc(OC)c(OC)c1,500,3.3,,,100,100,
COc1ccc(N(C)c2nc(C)nc3cc[nH]c23)cc1,,,1.2,5.92,,,IC50 (MDA-MB-435 [4]; read-out: IC50): 0.097 µM; IC50 (MDA-MB-435 [4]; read-out: pIC50 (converted)): 0.0955 µM
COc1ccc(N(C)c2ncnc3cc[nH]c23)cc1,,,1.4,5.85,,,IC50 (MDA-MB-435 [4]; read-out: IC50): 0.193 µM; IC50 (MDA-MB-435 [4]; read-out: pIC50 (converted)): 0.195 µM
COc1ccc(N(C)c2nc(C)nc3cc(C)[nH]c23)cc1,,,0.22,6.66,,,IC50 (MDA-MB-435 [4]; read-out: IC50): 0.03 µM; IC50 (MDA-MB-435 [4]; read-out: pIC50 (converted)): 0.0302 µM
COc1ccc(N(C)c2nc(N)nc3cc(C)[nH]c23)cc1,,,8.4,5.08,,,IC50 (MDA-MB-435 [4]; read-out: IC50): 0.298 µM; IC50 (MDA-MB-435 [4]; read-out: pIC50 (converted)): 0.295 µM
COc1ccc2c(c1)CCCN2c1nc(C)nc2cc[nH]c12,,,0.23,6.64,,,IC50 (MDA-MB-435 [4]; read-out: IC50): 0.043 µM; IC50 (MDA-MB-435 [4]; read-out: pIC50 (converted)): 0.0427 µM
COc1cccc(N(C)c2nc(C)nc3c2C[C@H](C)C3)c1,1.6,5.8,,,0.095,0.0955,
Cc1nc2c(c(N(C)c3ccccc3)n1)C[C@H](C)C2,43,4.37,,,1.67,1.66,
COc1ccc(Nc2nc(C)nc3c2C[C@@H](C)C3)cc1,520,3.28,,,51,51.3,

SMILES,EC50 [1] [µM],pEC50 [1],EC50 [2] [µM],pEC50 [2],IC50 (MDA-MB-435 [3]; read-out: IC50) [µM],IC50 (MDA-MB-435 [3]; read-out: pIC50 (converted)) [µM],further results
COc1cccc(N(C)c2nc(C)nc3c2C[C@@H](C)C3)c1,6.9,5.16,,,0.402,0.398,
CCOC(=O)c1[nH]c(Br)c(-c2cccc3ccccc23)c1Br,7,5.15,,,3.2,3.24,
CCOC(=O)c1[nH]c(Br)c(-c2c[nH]c3ccccc23)c1Br,18,4.75,,,2,2,
CCOC(=O)c1[nH]c(Br)c(-c2ccc(OC(F)(F)F)cc2)c1Br,27,4.57,,,1.7,1.7,
CCOC(=O)c1[nH]c(Br)c(-c2ccc(SC)cc2)c1Br,19,4.73,,,0.626,0.631,
CCOC(=O)c1[nH]c(Br)c(-c2ccc(Cl)c(Cl)c2)c1Br,9.9,5,,,0.806,0.813,
CCOC(=O)c1[nH]c(Br)c(-c2ccc(OC)c(F)c2)c1Br,14,4.85,,,0.539,0.537,
CCOC(=O)c1[nH]c(Br)c(-c2ccc3cc(OCC)ccc3c2)c1Br,33,4.48,,,2,2,
CCOC(=O)c1[nH]c(Br)c(-c2ccc3c(c2)OCO3)c1Br,30,4.53,,,1.8,1.82,
CCOC(=O)c1[nH]c(Br)c(-c2ccc3c(c2)OCCO3)c1Br,21,4.68,,,4.4,4.37,
CCOC(=O)c1[nH]c(Br)c(-c2cccc(OC)c2)c1Br,2.4,5.62,,,0.633,0.631,
CCOC(=O)c1cc(-c2ccc(OC)cc2)c(C(=O)c2ccc(OC)cc2)[nH]1,100,4,,,3,3.02,
CCOC(=O)c1[nH]c(C(=O)c2ccc(OC)cc2)c(-c2ccc(OC)cc2)c1Br,500,3.3,,,100,100,
CCOC(=O)c1c[nH]c(C(=O)c2ccc(OC)cc2)c1-c1ccc(OC)cc1,500,3.3,,,100,100,
CCOC(=O)c1[nH]c(Br)c(-c2ccc(Cl)cc2)c1Br,83,4.08,,,,,
CCOC(=O)c1[nH]c(Br)c(-c2ccc(OC)cc2)c1Br,7,5.15,,,0.843,0.851,
CCOC(=O)c1[nH]c(Br)c(-c2ccc(Br)cc2)c1Br,94,4.03,,,,,
CCOC(=O)c1[nH]c(C(=O)c2ccc(OC)cc2)c(-c2ccc(OC)cc2)c1-c1ccc(OC)cc1,500,3.3,,,100,100,
CCOC(=O)c1[nH]c(Br)c(-c2ccccc2)c1Br,167,3.78,,,,10.2,
COc1ccc(C(=O)c2[nH]c(C(=O)c3ccc(OC)cc3)c(-c3ccc(OC)cc3)c2-c2ccc(OC)cc2)cc1,500,3.3,,,100,100,
CCOC(=O)c1[nH]c(Br)c(-c2ccc(C)cc2)c1Br,75,4.12,,,,2.24,
CCOC(=O)c1[nH]c(Br)c(-c2cc(OC)c(OC)c(OC)c2)c1Br,71,4.15,,,,,
CCOC(=O)c1[nH]c(Br)c(-c2cc(OC)c(OC)cc2Br)c1Br,14,4.85,,,2.6,2.63,
CCOC(=O)c1[nH]cc(-c2ccc(OC)cc2)c1-c1ccc(OC)cc1,500,3.3,,,,,
COc1ccc(-c2oc3cc(O)c(OC)cc3c(=O)c2OC)cc1O,,,,,,,Kd (Tubulin): 6 µM
O=c1c(O)c(-c2ccc(O)cc2O)oc2cc(O)cc(O)c12 [MORIN],,,,,,,Kd (Tubulin): > 100 µM; pKd (Tubulin): 3.7
